Reference: patent US11028051B2, “Tetrahydroquinoline-based bromodomain inhibitors” (St. Jude Children's Research Hospital, priority 2016, dated 2021)
Like-named read-outs stand apart in the source and are kept apart here.

What was measured:
Assay in all cases: competitive TR-FRET assay, BET-BD with acetylated peptide ligand
Type in all cases: binding
[1] = target: BRD2-BD2 (Homo sapiens (Human), UniProt P25440); conditions: for 2.1/2.2: ratio of BRD2-BD1 EC50 to BRD2-BD2 EC50 (selectivity); for EC50: Table 11 additional modifications
Method: (§1) Inhibitor potency was determined using a competitive TR-FRET assay as detailed herein, measuring interaction of the respective BET-BD with an acetylated peptide ligand (Table 2).

[2] = target: BRD2-BD1 (Homo sapiens (Human), UniProt P25440); conditions: BRD2-BD1; Table 11 additional modifications; read-out: 2.1 EC50
Method: as §1

[3] = target: BRDT (Homo sapiens, UniProt Q58F21); conditions: BRDT; Table 11 additional modifications; read-out: BRDT EC50
Method: as §1

[4] = target: BRD3-BD1 (Homo sapiens (Human), UniProt Q15059); conditions: BRD3-BD1; Table 11 additional modifications; read-out: 3.1 EC50
Method: as §1

BRD2-BD2, sequence (P25440 344-453): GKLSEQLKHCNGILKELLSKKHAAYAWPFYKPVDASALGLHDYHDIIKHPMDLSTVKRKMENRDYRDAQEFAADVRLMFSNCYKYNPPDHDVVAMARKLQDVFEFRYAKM
BRD3-BD1, sequence (Q15059 34-140): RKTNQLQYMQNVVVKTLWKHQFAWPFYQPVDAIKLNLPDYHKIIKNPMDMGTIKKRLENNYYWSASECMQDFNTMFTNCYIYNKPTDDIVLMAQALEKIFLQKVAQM
BRD2-BD1, sequence (P25440 74-180): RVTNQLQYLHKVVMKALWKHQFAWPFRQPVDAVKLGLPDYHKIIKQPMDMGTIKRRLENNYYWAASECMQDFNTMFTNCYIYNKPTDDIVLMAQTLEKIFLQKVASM

Row | SMILES | 2.1/2.2 [1] | EC50 ([1]; BRD2-BD2, read-out: 2.2 EC50) [nM] | EC50 [2] [nM] | EC50 [3] [nM] | EC50 [4] [nM] | EC50 ([1]; 2.2 EC50, BRD2-BD2) [nM]
1 | CC(=O)Nc1cccc(-c2ccc3c(c2)[C@H](NC2CCN(C)CC2)C[C@H](C)N3C(C)=O)c1 [compound 119] | 2.9 | – | – | – | – | –
2 | COc1cc(N[C@@H]2C[C@H](C)N(C(C)=O)c3ccc(-c4cccc(NC(C)=O)c4)cc32)ccc1C#N [compound 191] | 26 | 47 | 1200 | – | – | –
3 | CC(=O)Nc1cccc(-c2ccc3c(c2)[C@H](Nc2ccc(F)cc2Cl)C[C@H](C)N3C(C)=O)c1 [compound 204] | 36 | – | – | – | – | –
4 | CC(=O)N1c2ccc(-c3cccc(NCCC(F)(F)F)c3)cc2[C@H](Nc2ccc(C#N)cc2)C[C@@H]1C [compound 180] | 13 | – | – | – | – | –
5 | CC(=O)N1c2ccc(-c3cccc(NC(=O)C(C)(C)C)c3)cc2[C@H](Nc2ccccc2Cl)C[C@@H]1C [compound 205] | 64 | – | – | – | – | –
6 | CC(=O)N1c2ccc(-c3cccc(NC(=O)C(C)C)c3)cc2[C@H](Nc2ccc(C#N)cc2)C[C@@H]1C [compound 184] | 14 | 110 | 670 | – | – | –
7 | CC(=O)N1c2ccc(-c3cccc(NCC4CCOC4)c3)cc2[C@H](Nc2ccc(C#N)cc2)C[C@@H]1C (some centres unmarked) [compound 183] | 27 | – | – | – | – | –
8 | COc1cccc(NC2CCN(C(C)=O)c3ccc(-c4cccc(NC(C)=O)c4)cc32)c1 (centres unmarked) [compound 178] | 22 | – | – | – | – | –
9 | CC(=O)Nc1cccc(-c2ccc3c(c2)[C@H](Nc2ccc(C#N)c(Cl)c2)C[C@H](C)N3C(C)=O)c1 [compound 186] | – | 59 | 2100 | – | – | –
10 | CC(=O)N1c2ccc(-c3cccc(NCC4CCOC4)c3)cc2[C@H](Nc2ccccc2OC(F)(F)F)C[C@@H]1C (some centres unmarked) [compound 151] | 49 | 670 | 14000 | 26000 | 8300 | –
11 | COc1cc(C#N)ccc1N[C@@H]1C[C@H](C)N(C(C)=O)c2ccc(-c3cccc(NC(C)=O)c3)cc21 [compound 189] | 48 | 17 | 670 | – | – | –
12 | CC(=O)Nc1cccc(-c2ccc3c(c2)[C@H](Nc2ccc(C(C)=O)cc2)C[C@H](C)N3C(C)=O)c1 [compound 17] | 16 | 70 | 1100 | 4600 | – | –
13 | COC(=O)c1ccc(N[C@@H]2C[C@H](C)N(C(C)=O)c3ccc(-c4cccc(NCC5CC5)c4)cc32)cc1 [compound 141] | 0.015 | 500 | 2500 | 5200 | 1700 | –
14 | CC(=O)Nc1cccc(-c2ccc3c(c2)[C@H](Nc2ccc(C#N)cc2C)C[C@H](C)N3C(C)=O)c1 [compound 199] | 26 | 19 | 890 | – | – | –
15 | C#CCCNC(=O)c1ccc(N[C@@H]2C[C@H](C)N(C(C)=O)c3ccc(-c4cccc(NC(C)=O)c4)cc32)cc1 [compound 139] | 3.4 | 230 | 790 | 1900 | 690 | –
16 | CC(=O)Nc1cccc(-c2ccc3c(c2)[C@H](Nc2cccc(Cl)c2)C[C@H](C)N3C(C)=O)c1 [compound 198] | 19 | 57 | 3300 | – | – | –
17 | COC(=O)c1ccc(CN(Cc2ccc(C(=O)OC)cc2)[C@@H]2C[C@H](C)N(C(C)=O)c3ccc(-c4cccc(NC(C)=O)c4)cc32)cc1 [compound 158] | 11 | – | – | – | – | –
18 | CC(=O)N1c2ccc(-c3cccc(NC(=O)C(C)(C)C)c3)cc2[C@H](Nc2ccc(C#N)cc2)C[C@@H]1C [compound 185] | – | 29 | 1800 | – | – | –
19 | CC(=O)N(c1ccc(NCCC(C)C)cc1)[C@@H]1C[C@H](C)N(C(C)=O)c2ccc(-c3cccc(NC(=O)OC(C)(C)C)c3)cc21 [compound 124] | 4.0 | – | – | – | – | –
20 | CCCN(CCC)c1cccc(-c2ccc3c(c2)[C@H](Nc2ccccc2OC(F)(F)F)C[C@H](C)N3C(C)=O)c1 [compound 155] | 2.6 | 5700 | 17000 | > 84000 | 79000 | –
21 | CC(=O)N(c1ccc(NCC2CC2)cc1)[C@@H]1C[C@H](C)N(C(C)=O)c2ccc(-c3cccc(NC(=O)OC(C)(C)C)c3)cc21 [compound 122] | 70 | – | – | – | – | –
22 | CC(=O)N1c2ccc(-c3cccc(N(CCC(C)C)CCC(C)C)c3)cc2[C@H](Nc2ccccc2OC(F)(F)F)C[C@@H]1C [compound 148] | 16 | 34000 | 90000 | > 90000 | > 90000 | –
23 | COC(=O)c1ccc(N[C@@H]2C[C@H](C)N(C(C)=O)c3ccc(-c4cn(C)cn4)cc32)cc1 [compound 157] | 52 | – | – | – | – | –
24 | CC(=O)N1c2ccc(-c3ccnn3C)cc2[C@H](Nc2ccccc2OC(F)(F)F)C[C@@H]1C [compound 145] | 5.0 | 390 | 19000 | > 58000 | 21000 | –
25 | CC(=O)Nc1cccc(-c2ccc3c(c2)[C@H](Nc2cc(F)c(C#N)c(F)c2)C[C@H](C)N3C(C)=O)c1 [compound 190] | 37 | 120 | 2200 | – | – | –

Row | SMILES | 2.1/2.2 [1] | EC50 ([1]; BRD2-BD2, read-out: 2.2 EC50) [nM] | EC50 [2] [nM] | EC50 [3] [nM] | EC50 [4] [nM] | EC50 ([1]; 2.2 EC50, BRD2-BD2) [nM]
26 | CC(=O)Nc1cccc(-c2ccc3c(c2)[C@H](Nc2ccc(C#N)cc2Cl)C[C@H](C)N3C(C)=O)c1 [compound 196] | 27 | 60 | 2170 | – | – | –
27 | CC(=O)Nc1cccc(-c2ccc3c(c2)[C@H](Nc2ccccc2C)C[C@H](C)N3C(C)=O)c1 [compound 200] | 92 | – | 2000 | – | – | –
28 | COC(=O)c1ccc(N[C@@H]2C[C@H](C)N(C(C)=O)c3ccc(-c4c[nH]cn4)cc32)cc1 [compound 156] | 9.4 | – | – | – | – | –
29 | CC(=O)N1c2ccc(-c3cccc(NC(=O)C(C)(C)C)c3)cc2[C@H](Nc2ccc(Cl)cc2)C[C@@H]1C [compound 206] | 57 | – | – | – | – | –
30 | CC(=O)Nc1cccc(-c2ccc3c(c2)[C@H](Nc2ccc(C(=O)COC(C)=O)cc2)C[C@H](C)N3C(C)=O)c1 [compound 162] | 21 | – | – | – | – | –
31 | CC(=O)Nc1cccc(-c2ccc3c(c2)[C@H](Nc2ccc(C#N)c(C(F)(F)F)c2)C[C@H](C)N3C(C)=O)c1 [compound 192] | 6.3 | – | 4800 | – | – | 52
32 | CC(=O)Nc1cccc(-c2ccc3c(c2)[C@H](Nc2ccc(NC(=O)CO)cc2)C[C@H](C)N3C(C)=O)c1 [compound 121] | 33 | – | – | – | – | –
33 | CC(=O)Nc1cccc(-c2ccc3c(c2)[C@H](Nc2cccc(CN)c2)C[C@H](C)N3C(C)=O)c1 [compound 163] | 6.7 | – | – | – | – | –
34 | CC(=O)Nc1cccc(-c2ccc3c(c2)[C@H](Nc2ccccc2C#N)C[C@H](C)N3C(C)=O)c1 [compound 194] | 35 | 60 | 2200 | – | – | –
35 | CC(=O)Nc1cccc(-c2ccc3c(c2)[C@H](Nc2ccc(NC(=O)C4CC4)cc2)C[C@H](C)N3C(C)=O)c1 [compound 123] | >1000 | – | – | – | – | –
36 | CC(=O)N1c2ccc(-c3cccc(NCCC(F)(F)F)c3)cc2[C@H](Nc2ccccc2OC(F)(F)F)C[C@@H]1C [compound 153] | 8.2 | 1700 | 90000 | > 90000 | 39000 | –
37 | CC(=O)N1c2ccc(-c3ccn(C)n3)cc2[C@H](Nc2ccc(C#N)cc2)C[C@@H]1C [compound 182] | 23 | – | – | – | – | –
38 | CC(=O)Nc1cccc(-c2ccc3c(c2)[C@H](Nc2cccc(C(F)(F)F)c2)C[C@H](C)N3C(C)=O)c1 [compound 181] | 8.4 | 170 | 8000 | – | – | –
39 | CC(=O)Nc1cccc(-c2ccc3c(c2)[C@H](Nc2ccc(C#N)c(F)c2)C[C@H](C)N3C(C)=O)c1 [compound 193] | 63 | – | 1000 | – | – | –
40 | CCCCN(CCCC)c1cccc(-c2ccc3c(c2)[C@H](Nc2ccccc2OC(F)(F)F)C[C@H](C)N3C(C)=O)c1 [compound 146] | 22 | 9600 | 78000 | > 78000 | > 78000 | –
41 | CC(=O)N1c2ccc(-c3cccc(N(CC4CC4)CC4CC4)c3)cc2[C@H](Nc2ccccc2OC(F)(F)F)C[C@@H]1C [compound 152] | – | 8400 | 79000 | > 79000 | 78000 | –
42 | CC(=O)Nc1cccc(-c2ccc3c(c2)[C@H](Nc2ccccc2Cl)C[C@H](C)N3C(C)=O)c1 [compound 197] | 39 | 54 | 3500 | – | – | –
43 | COC(=O)c1ccc(CN[C@@H]2C[C@H](C)N(C(C)=O)c3ccc(-c4cccc(NC(C)=O)c4)cc32)cc1 [compound 159] | 2.9 | – | – | – | – | –
44 | CC(=O)Nc1cccc(-c2ccc3c(c2)[C@H](Nc2ccccc2Cl)C[C@H](C)N3C(C)=O)c1 [compound 187] | – | 120 | 8700 | – | – | –
45 | CC(=O)N1c2ccc(-c3ccn(-c4ccc(C#N)cc4)n3)cc2[C@H](Nc2ccc(C#N)cc2)C[C@@H]1C [compound 207] | 44 | – | – | – | – | –
46 | CC(=O)N1c2ccc(-c3cc[nH]n3)cc2[C@H](Nc2ccccc2Cl)C[C@@H]1C [compound 203] | 51 | – | – | – | – | –
47 | CC(=O)N1c2ccc(-c3cccc(-n4cccn4)c3)cc2[C@H](Nc2ccccc2OC(F)(F)F)C[C@@H]1C [compound 140] | 22.9 | 1400 | 21000 | > 82000 | 31000 | –
48 | CC(=O)Nc1cccc(-c2ccc3c(c2)[C@H](Nc2ccc4c(c2)CCNC4)C[C@H](C)N3C(C)=O)c1 [compound 188] | – | 4 | 110 | – | – | –
49 | CC(=O)Nc1cccc(-c2ccc3c(c2)[C@H](Nc2ccc(C#N)c(C)c2)C[C@H](C)N3C(C)=O)c1 [compound 195] | 73 | 17 | 870 | – | – | –
50 | CC(=O)N1c2ccc(-c3cc[nH]n3)cc2[C@H](Nc2ccc(F)c(F)c2)C[C@@H]1C [compound 202] | 36 | – | – | – | – | –
